Counter-ions that a name gives are not always drawn.

In this assay the target is T1, human V1a receptor (Homo sapiens, UniProt P37288).
T1 construct: expressed in transfected cells; host or cells: HEK293 cells, transiently transfected; cell membranes
T1 sequence (P37288 whole entry): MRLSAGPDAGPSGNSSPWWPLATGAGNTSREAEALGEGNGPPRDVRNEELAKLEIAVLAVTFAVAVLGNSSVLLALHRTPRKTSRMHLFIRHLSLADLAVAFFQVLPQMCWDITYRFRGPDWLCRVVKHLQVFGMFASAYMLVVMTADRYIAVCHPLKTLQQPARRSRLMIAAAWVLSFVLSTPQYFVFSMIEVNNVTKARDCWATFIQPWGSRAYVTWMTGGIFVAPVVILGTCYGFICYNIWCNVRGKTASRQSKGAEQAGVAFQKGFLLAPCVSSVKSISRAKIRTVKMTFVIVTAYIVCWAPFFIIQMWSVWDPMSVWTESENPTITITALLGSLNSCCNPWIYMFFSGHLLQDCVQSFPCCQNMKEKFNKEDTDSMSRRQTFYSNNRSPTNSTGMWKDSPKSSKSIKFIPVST
Kind of assay: human V1a receptor binding studies (3H-Vasopressin, SPA beads). The note with it: membranes from HEK293 cells transiently transfected with human V1a receptor, Ki calculated from IC50 by the Cheng-Prussoff equation, read-out: pKi (hV1a) (converted). In short, it runs like this:
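Membranes from HEK293 cells transiently expressing human V1a were bound to yttrium silicate SPA beads in Tris/NaCl/KCl/CaCl2/MgCl2 buffer. 3H-vasopressin (4 nM stock) and compound in 2% DMSO incubated 1 h at room temperature. Non-specific binding was defined with cold vasopressin; IC50 was converted to Ki by Cheng-Prusoff.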
Consider `Cc1nccnc1[C@H]1CC[C@H](c2nnc3n2-c2ccc(Cl)cc2CNC3)CC1` [Example 76, trans-8-Chloro-1-[4-(3-methyl-pyrazin-2-yl)-cyclohexyl]-5,6-dihydro-4H-2,3,5,10b-tetraaza-benzo[e]azulene], for which the Ki was 44.7 nM.

For `Cc1nccnc1[C@H]1CC[C@H](c2nnc3n2-c2ccc(Cl)cc2CN(C)C3)CC1` [Example 77, trans-8-Chloro-5-methyl-1-[4-(3-methyl-pyrazin-2-yl)-cyclohexyl]-5,6-dihydro-4H-2,3,5,10b-tetraaza-benzo[e]azulene], the Ki is 5.13 nM.

For the molecule `Cc1cnc(C)c([C@H]2CC[C@H](c3nnc4n3-c3ccc(Cl)cc3CN(C(=O)OC(C)(C)C)C4)CC2)n1` [Example 78, trans-8-Chloro-1-[4-(3,6-dimethyl-pyrazin-2-yl)-cyclohexyl]-4H,6H-2,3,5,10b-tetraaza-benzo[e]azulene-5-carboxylic acid tert-butyl ester], the Ki was 0.794 nM.

`Cc1cnc(C)c([C@H]2CC[C@H](c3nnc4n3-c3ccc(Cl)cc3CNC4)CC2)n1` [Example 79, trans-8-Chloro-1-[4-(3,6-dimethyl-pyrazin-2-yl)-cyclohexyl]-5,6-dihydro-4H-2,3,5,10b-tetraaza-benzo[e]azulene hydrochloride]: the Ki was 6.76 nM.

As for `Cc1cnc(C)c([C@H]2CC[C@H](c3nnc4n3-c3ccc(Cl)cc3CN(C)C4)CC2)n1` [Example 80, trans-8-Chloro-1-[4-(3,6-dimethyl-pyrazin-2-yl)-cyclohexyl]-5-methyl-5,6-dihydro-4H-2,3,5,10b-tetraaza-benzo[e]azulene], the Ki is 7.24 nM.

For `CN1Cc2cc(Cl)ccc2-n2c(nnc2[C@H]2CC[C@H](c3cccnn3)CC2)C1` [Example 81, trans-8-Chloro-5-methyl-1-(4-pyridazin-3-yl-cyclohexyl)-5,6-dihydro-4H-2,3,5,10b-tetraaza-benzo[e]azulene], the Ki is 4.68 nM.

Take `CC(C)(C)OC(=O)N1Cc2cc(Cl)ccc2-n2c(nnc2[C@H]2CC[C@H](c3ncccc3Cl)CC2)C1` [Example 82, trans-8-Chloro-1-[4-(3-chloro-pyridin-2-yl)-cyclohexyl]-4H,6H-2,3,5,10b-tetraaza-benzo[e]azulene-5-carboxylic acid tert-butyl ester]: the Ki was 0.501 nM.

On to `Clc1ccc2c(c1)CNCc1nnc([C@H]3CC[C@H](c4ncccc4Cl)CC3)n1-2` [Example 83, trans-8-Chloro-1-[4-(3-chloro-pyridin-2-yl)-cyclohexyl]-5,6-dihydro-4H-2,3,5,10b-tetraaza-benzo[e]azulene], for which the Ki is 7.24 nM.

For the molecule `CN1Cc2cc(Cl)ccc2-n2c(nnc2[C@H]2CC[C@H](c3ncccc3Cl)CC2)C1` [Example 84, trans-8-Chloro-1-[4-(3-chloro-pyridin-2-yl)-cyclohexyl]-5-methyl-5,6-dihydro-4H-2,3,5,10b-tetraaza-benzo[e]azulene], the Ki was 0.501 nM.

For the molecule `CC(C)(C)OC(=O)N1Cc2cc(Cl)ccc2-n2c(nnc2[C@H]2CC[C@H](c3ncc(F)cc3F)CC2)C1` [Example 85, trans-8-Chloro-1-[4-(3,5-difluoro-pyridin-2-yl)-cyclohexyl]-4H,6H-2,3,5,10b-tetraaza-benzo[e]azulene-5-carboxylic acid tert-butyl ester], the Ki was 1.1 nM.

With `Fc1cnc([C@H]2CC[C@H](c3nnc4n3-c3ccc(Cl)cc3CNC4)CC2)c(F)c1` [Example 86, trans-8-Chloro-1-[4-(3,5-difluoro-pyridin-2-yl)-cyclohexyl]-5,6-dihydro-4H-2,3,5,10b-tetraaza-benzo[e]azulene], the Ki is 9.33 nM.

Take `CN1Cc2cc(Cl)ccc2-n2c(nnc2[C@H]2CC[C@H](c3ncc(F)cc3F)CC2)C1` [Example 87, trans-8-Chloro-1-[4-(3,5-difluoro-pyridin-2-yl)-cyclohexyl]-5-methyl-5,6-dihydro-4H-2,3,5,10b-tetraaza-benzo[e]azulene]: the Ki is 1.29 nM.

Values taken from patent publication US8492376B2, “Heteroaryl-cyclohexyl-tetraazabenzo[e]azulenes” (Hoffmann-La Roche Inc., priority 2010, dated 2013).
